Experimental findings from patent publication US11053243B2 (Merck Sharp & Dohme Corp., priority 2009, dated 2021) are described below.

The subject of the first assay is HCV genotype 1b replicon. In words: HCV replicon assay, genotype 1b. The assay is classed as cell-based, hepatitis C virus. The following applies: Hepatitis C virus; genotype 1b replicon cells, 24 to 72 hours incubation, luciferase activity. The method, then:
The HCV replicons and NS5A inhibitory activity of the present compounds may be tested using assays known in the art. HCV inhibitors, such as those described in the Examples herein have activities in genotype 1b, 2a and 1a replicon assays of from about 1 pM to about 1 μM. The assay is performed by incubating a replicon harboring cell-line in the presence of inhibitor for a set period of time and measuring the effect of the inhibitor on HCV replicon replication either directly by quantifying replicon RNA level, or indirectly by measuring enzymatic activity of a co-encoded reporter enzyme such as luciferase or β-lactamase. By performing a series of such measurements at different inhibitor concentrations, the effective inhibitory concentration of the inhibitor (EC50 or EC90) is determined. See Jan M. Vrolijk et al., A replicons-based bioassay for the measurement of interferons in patients with chronic hepatitis C, 110 J. VIROLOGICAL METHODS 201 (2003). Such assays may also be run in an automated format for high through-put screening. See Paul Zuck et al., A cell-based β-lactamase reporter gene assay for the identification of inhibitors of hepatitis C virus replication, 334 ANALYTICAL BIOCHEMISTRY 344 (2004).
Measurement of inhibition by compounds was performed using the HCV replicon system. Several different replicons encoding different HCV genotypes or mutations were used. In addition, potency measurements were made using different formats of the replicon assay, including different ways of measurements and different plating formats. See Jan M. Vrolijk et al., A replicons-based bioassay for the measurement of interferons in patients with chronic hepatitis C, 110 J. VIROLOGICAL METHODS 201 (2003); Steven S. Carroll et al., Inhibition of Hepatitis C Virus RNA Replication by 2′-Modified Nucleoside Analogs, 278(14) J. BIOLOGICAL CHEMISTRY 11979 (2003). However, the underlying principles are common to all of these determinations, and are outlined below.
Stable neomycin phosphotransferase encoding replicon-harboring cell lines were used, so all cell lines were maintained under G418 selection prior to the assay. In some cases, the cell lines encoded a luciferase:Neor fusion and could be assayed either directly by determination of RNA copy number, or indirectly through measurement of the luciferase activity.
To initiate an assay, replicon cells were plated in the presence of a dilution series of test compound in the absence of G418. Typically, the assays were performed in a 96-well plate format for manual operation, or a 384-well plate in an automated assay. Replicon cells and compound were incubated for 24 to 72 hours. At the end of the assay, cells are washed free of media and compound and then lysed. Luciferase activity was measured using a conventional luciferase assay. EC50 determinations were calculated as a percent of a DMSO control by fitting the data to a four parameter fit function.
The activity table below provides representative data illustrating observed activity against genotype 1b.
`CC(C)(C)OC(=O)N[C@@H](C(=O)N1CCC[C@H]1C(=O)Nc1ccc(-c2[nH]c3ccc(NC(=O)[C@@H]4CCCN4C(=O)[C@H](NC(=O)OC(C)(C)C)c4ccccc4)cc3c2C(=O)NC2CC2)cc1)c1ccccc1` [Example 158, tert-butyl {(1R)-2-[(2S)-2-({4-[5-({[(2S)-1-{(2R)-2-[(tert-butoxycarbonyl)amino]-2-phenylacetyl}pyrrolidin-2-yl]carbonyl}amino)-3-(cyclopropylcarbamoyl)-1H-indol-2-yl]phenyl}carbamoyl)pyrrolidin-1-yl]-2-oxo-1-phenylethyl}carbamate]: the concentration for a half-maximal effect (EC50) worked out at 0.5 nM. The compound `Cc1cccc(-c2c(-c3ccc(NC(=O)[C@@H]4CCCN4C(=O)[C@H](NC(=O)OC(C)(C)C)c4ccccc4)cc3)[nH]c3ccc(NC(=O)[C@@H]4CCCN4C(=O)[C@H](NC(=O)OC(C)(C)C)c4ccccc4)cc23)c1` [Example 169, tert-butyl {(1R)-2-[(2S)-2-({4-[5-({[(2S)-1-{(2R)-2-[(tert-butoxycarbonyl)amino]-2-phenylacetyl}pyrrolidin-2-yl]carbonyl}amino)-3-(3-methylphenyl)-1H-indol-2-yl]phenyl}carbamoyl)pyrrolidin-1-yl]-2-oxo-1-phenylethyl}carbamate] showed a 50% effective concentration (EC50) of 0.004 nM. The same measure, in the same setting: as for `CC(=O)NCC#Cc1cc2cc(NC(=O)[C@@H]3CCCN3C(=O)[C@H](NC(=O)OC(C)(C)C)c3ccccc3)ccc2[nH]1` [Example 178, tert-butyl {(1R)-2-[(2S)-2-({2-[3-(acetylamino)prop-1-yn-1-yl]-1H-indol-5-yl}carbamoyl)pyrrolidin-1-yl]-2-oxo-1-phenylethyl}carbamate], the figure is 317 nM; as for `CC(C)(C)OC(=O)N[C@H](C(=O)N1CCC[C@H]1C(=O)Nc1ccc(-c2cc3cc(C#N)ccc3[nH]2)cc1)c1ccccc1` [Example 186, tert-butyl {(1S)-2-[(2S)-2-{[4-(5-cyano-1H-indol-2-yl)phenyl]carbamoyl}pyrrolidin-1-yl]-2-oxo-1-phenylethyl}carbamate], 0.015 nM; as for `COC(=O)N[C@H](C(=O)N1CCC[C@H]1c1ncc(-c2ccc3c(c2)OCn2c-3cc3cc(-c4cnc([C@@H]5CCCN5C(=O)[C@@H](NC(=O)OC)C(C)C)[nH]4)ccc32)[nH]1)C(C)C` [Example 189a, methyl [(2S)-1-{(2S)-2-[5-(10-{2-[(2S)-1-{(2S)-2-[(methoxycarbonyl)amino]-3-methylbutanoyl}pyrrolidin-2-yl]-1H-imidazol-5-yl}indolo[1,2-c] [1,3]benzoxazin-3-yl)-1H-imidazol-2-yl]pyrrolidin-1-yl}-3-methyl-1-oxobutan-2-yl]carbamate], 0.15 nM. `COC(=O)N[C@H](C(=O)N1CCC[C@H]1c1ncc(-c2ccc3c(c2)OCn2c-3c(F)c3cc(-c4cnc([C@@H]5CCCN5C(=O)[C@@H](NC(=O)OC)C(C)C)[nH]4)ccc32)[nH]1)C(C)C` [Example 189b]: a half-maximal response (EC50) required 0.001 nM. In the case of `CCN(CC)[C@@H](C(=O)N1CCC[C@H]1C(=O)Nc1ccc2[nH]c(-c3ccc(-c4nnc([C@@H]5CCCN5C(=O)[C@@H](c5ccccc5)N(CC)CC)o4)cc3)cc2c1)c1ccccc1` [Example 191, 1-[(2R)-2-(diethylamino)-2-phenylacetyl]-N-{2-[4-(5-{(2S)-1-[(2R)-2-(diethylamino)-2-phenylacetyl]pyrrolidin-2-yl}-1,3,4-oxadiazol-2-yl)phenyl]-1H-indol-5-yl}-L-prolinamide], the response was half-maximal at 0.02 nM (EC50). In turn, `COC(=O)N[C@H](C(=O)N1CCC[C@H]1c1ncc(-c2ccc(-c3cc4cc(-c5cnc([C@@H]6CCCN6C(=O)[C@@H](NC(=O)OC)C(C)C)[nH]5)ccc4o3)cc2)[nH]1)C(C)C` [Example 192, Methyl {(2S)-1-[(2S)-2-{5-[4-(5-{2-[(2S)-1-{(2S)-2-[(methoxy-carbonyl)amino]-3-methylbutanoyl}pyrrolidin-2-yl]-1H-imidazol-5-yl}-1-benzofuran-2-yl)phenyl]-1H-imidazol-2-yl}pyrrolidin-1-yl]-3-methyl-1-oxobutan-2-yl}carbamate] yielded a concentration for a half-maximal effect (EC50) of 0.002 nM. In turn, `CCN(CC)[C@@H](C(=O)N1CCC[C@H]1c1ncc(-c2ccc(-c3cc4cc(-c5cnc([C@@H]6CCCN6C(=O)[C@@H](c6ccccc6)N(CC)CC)[nH]5)ccc4o3)cc2)[nH]1)c1ccccc1` [Example 193, (2R)-2-(diethylamino)-1-[(2S)-2-(5-{4-[5-(2-{(2S)-1-[(2R)-2-(diethylamino)-2-phenylacetyl]pyrrolidin-2-yl}-1H-imidazol-5-yl)-1-benzofuran-2-yl]phenyl}-1H-imidazol-2-yl)pyrrolidin-1-yl]-2-phenylethanone] returned an EC50 of 0.05 nM.

In the case of `COC(=O)N[C@@H](C(=O)N1CCC[C@H]1c1ncc(-c2ccc(-c3nc4cc(-c5cnc([C@@H]6CCCN6C(=O)[C@H](NC(=O)OC)c6ccccc6)[nH]5)ccc4o3)cc2)[nH]1)c1ccccc1` [Example 213, Methyl {(1R)-2-[(2S)-2-{5-[4-(5-{2-[(2S)-1-{(2R)-2-[(methoxycarbonyl)amino]-2-phenylacetyl}pyrrolidin-2-yl]-1H-imidazol-5-yl}-1,3-benzoxazol-2-yl)phenyl]-1H-imidazol-2-yl}pyrrolidin-1-yl]-2-oxo-1-phenylethyl}carbamate], the concentration giving a half-maximal response (EC50) was 0.009 nM.

The same assay, now with this note: genotype 1b replicon cells, 24 to 72 hours incubation, luciferase activity.
`CN(C)[C@@H](C(=O)N1CCC[C@H]1C(=O)Nc1ccc2[nH]c(-c3nc4cc(NC(=O)[C@@H]5CCCN5C(=O)[C@@H](c5ccccc5)N(C)C)ccc4o3)cc2c1)c1ccccc1` [Example 190, (2S)-1-[(2R)-2-(dimethylamino)-2-phenylacetyl]-N-(2-{5-[({(2S)-1-[(2R)-2-(dimethylamino)-2-phenylacetyl]pyrrolidin-2-yl}carbonyl)amino]-1,3-benzoxazol-2-yl}-1H-indol-5-yl)pyrrolidine-2-carboxamide]: it took 0.067 nM to reach a half-maximal effect (EC50).
